Measurements from patent US10376476B2, “Panicein compounds, compositions and uses thereof” (CENTRE NATIONAL DE LA RECHERCHE SCIENTIFIQUE, priority 2014, dated 2019).

Biological target: T1, wild-type Patched (hPtc) expressed in yeasts (Homo sapiens, UniProt Q13635)
T1 construct: MAP; expressed in transfected cells; host or cells: Saccharomyces cerevisiae K699
T1 sequence (Q13635 1-1447): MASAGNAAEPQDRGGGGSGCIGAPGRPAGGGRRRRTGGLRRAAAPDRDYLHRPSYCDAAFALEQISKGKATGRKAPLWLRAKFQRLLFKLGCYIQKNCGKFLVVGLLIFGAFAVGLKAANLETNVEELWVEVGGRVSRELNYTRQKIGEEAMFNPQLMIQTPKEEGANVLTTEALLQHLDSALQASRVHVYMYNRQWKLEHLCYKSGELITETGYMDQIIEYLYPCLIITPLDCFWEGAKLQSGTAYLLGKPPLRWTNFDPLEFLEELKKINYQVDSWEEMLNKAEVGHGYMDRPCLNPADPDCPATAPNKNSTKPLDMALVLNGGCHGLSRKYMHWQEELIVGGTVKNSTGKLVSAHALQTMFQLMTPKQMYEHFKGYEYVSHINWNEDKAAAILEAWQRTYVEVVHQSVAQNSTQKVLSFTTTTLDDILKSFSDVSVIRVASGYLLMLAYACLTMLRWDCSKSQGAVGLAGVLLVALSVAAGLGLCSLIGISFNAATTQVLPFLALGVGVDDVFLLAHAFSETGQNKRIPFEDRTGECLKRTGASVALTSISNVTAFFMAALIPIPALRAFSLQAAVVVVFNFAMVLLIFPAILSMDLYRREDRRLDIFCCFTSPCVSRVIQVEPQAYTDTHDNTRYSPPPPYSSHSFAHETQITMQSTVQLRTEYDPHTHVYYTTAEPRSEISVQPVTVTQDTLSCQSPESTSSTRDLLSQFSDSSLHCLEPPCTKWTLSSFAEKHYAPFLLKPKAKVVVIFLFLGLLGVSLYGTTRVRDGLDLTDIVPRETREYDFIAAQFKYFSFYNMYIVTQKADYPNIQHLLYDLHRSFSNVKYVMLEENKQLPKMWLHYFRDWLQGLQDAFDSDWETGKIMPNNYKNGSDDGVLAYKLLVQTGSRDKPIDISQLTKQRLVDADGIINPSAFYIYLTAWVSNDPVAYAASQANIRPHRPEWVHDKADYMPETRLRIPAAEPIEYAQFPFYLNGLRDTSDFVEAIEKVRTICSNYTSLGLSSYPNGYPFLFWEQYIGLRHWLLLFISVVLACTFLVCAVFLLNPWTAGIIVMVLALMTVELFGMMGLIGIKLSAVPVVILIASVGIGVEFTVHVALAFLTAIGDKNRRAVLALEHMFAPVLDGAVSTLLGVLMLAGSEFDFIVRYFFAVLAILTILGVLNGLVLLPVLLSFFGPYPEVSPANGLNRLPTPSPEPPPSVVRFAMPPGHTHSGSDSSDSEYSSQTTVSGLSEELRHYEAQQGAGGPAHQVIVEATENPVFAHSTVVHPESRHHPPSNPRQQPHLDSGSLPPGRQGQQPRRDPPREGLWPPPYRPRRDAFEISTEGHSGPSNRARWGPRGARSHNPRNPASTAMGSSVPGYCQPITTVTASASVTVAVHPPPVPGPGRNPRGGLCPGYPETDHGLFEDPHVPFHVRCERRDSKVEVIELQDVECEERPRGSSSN
Assay: Doxorubicin efflux from yeasts (intracellular dxr fluorescence)
Format: cell-based
Details: for Efflux (%) of dxr: WT-hPtc-yeasts, 10 μM paniceins, 10 min, 5 mM 2-deoxy-D-glucose; for dxr fluorescence in hPtc-expressing yeasts after efflux: 10 μM paniceins during efflux, contrary to control yeasts
Protocol: A. Compound P5 inhibits doxorubicin efflux from melanoma cells MeWo and A375. Cells were grown on cover-slips, incubated for 2 hour at 37° C. with 10 μM doxorubicin and quickly rinsed with phosphate buffer (pH 7.4). One cover-slip of each cell line was immediately fixed for doxorubicin charge control. The other cover-slips were incubated with buffer supplemented with DMSO or 10 μM of compound P5 30 min under gentle shaking and immediately fixed. Dxr intracellular fluorescence was visualized by epifluorescence and analyzed using Image J software on more than 30 cells of 3 different fields for each condition. The results were analyzed using the Student t test in which significance is attained at P<0.05 (**: P<0.005, ***: P<0.0005). B. Paniceins inhibit doxorubicin efflux from Patched-expressing yeasts. Yeasts expressing wild-type Patched (hPtc, in black), mutant Patched G509VD513Y (hPtcVXXXY, in grey), and control yeasts (in white) were incubated in buffer supplemented with 5 mM of 2-deoxy-D-glucose and 10 μM dxr for 2 hours at 4° C. After centrifugation and supernatant removing, one sample was immediately fixed for charge control and the other samples were resuspended in buffer containing 5 mM of 2-deoxy-D-glucose supplemented with DMSO or 10 μM of paniceins 10 minutes at 25° C. with gentle shaking. After centrifugation and supernatant removing, samples were fixed and deposited on coverslips for epifluorescence microscopy observation. Dxr intracellular fluorescence quantification was carried out using Image J software on more than 30 yeasts on 3 different fields for each condition. The results were analyzed using the Student t test in which significance is attained at P<0.05 (*).
On yeasts: Yeasts expressing Patched (hPtc), mutant Patched (hPtcG509VD513Y), or control yeasts were washed with cold water, resuspended at an OD600 of 10 in Hepes-NaOH buffer (pH 7.0) supplemented with 5 mM of 2-deoxy-D-glucose, and incubated with 10 μM doxorubicin for 2 hours at 4° C. in the cold room on a rotating wheel protected from light. Yeasts were centrifuged and the supernatant was removed. One sample was immediately fixed with 4% paraformaldehyde for doxorubicin loading control. The other samples were resuspended in Hepes-NaOH buffer (pH 7.0) containing 5 mM of 2-deoxy-D-glucose supplemented with DMSO or 10 μM of paniceins, and incubated 10 minutes at 20° C. with gentle shaking in a Benchmark Multi-therm shaker protected from light. Samples were centrifuged for 1 minute at 18,000 g, supernatants were removed and yeasts were fixed with 4% paraformaldehyde. 10 μL of each sample were deposited on a coverslip and observed by epifluorescence microscopy using an objective 63x and filters for Alexa 594. Quantification of doxorubicin intracellular fluorescence was carried out using Image J software on more than 30 yeasts on 3 different fields for each condition. The results were analyzed using the Student t test in which significance is attained at P <0.05.
In order to see if Paniceins inhibit dxr efflux through Patched inhibition, inventors compared dxr efflux on yeasts over-expressing human Patched and control yeasts. After loading with dxr, yeasts were centrifuged and fixed for dxr loading control (LC), or resuspended in buffer supplemented with DMSO or paniceins for efflux measurements. After 10 min a 20° C., yeasts were collected, fixed and deposited on cover-slips. 2-deoxy-D-glucose was added in buffer during loading and efflux in order to inhibit ATP-binding cassette (ABC) transporters. Dxr fluorescence intensity of at least 30 yeasts was measured for each experiment. FIGS. 6A and 12A show the mean fluorescence intensity of 3 independent experiments. […] This was confirmed using yeasts over-expressing Patched mutant VXXXY. […] Yeasts over-expressing hPtcVXXXY are less resistance to growth inhibition by dxr than yeasts over-expressing wild-type hPtc (Bidet et al., 2012).

## C/C(=C\Cc1cc(O)ccc1O)CCc1c(C)c(O)c(O)c(C=O)c1C [P2, Panicein C]
  Efflux (%) of dxr: 51%

## C/C(=C\Cc1cc(O)ccc1O)CCc1c(C)cc(O)c(C=O)c1C [P3, Panicein B3]
  Efflux (%) of dxr: 46%

## Cc1cc(O)c(C=O)c(C)c1CCC1(C)C=Cc2cc(O)ccc2O1 (stereo not drawn) [P4, Panicein B2]
  dxr fluorescence in hPtc-expressing yeasts after efflux: significantly higher amounts of dxr fluorescence
  Efflux (%) of dxr: 46%

## COc1cc(C)c(CC/C(C)=C/Cc2cc(O)ccc2O)c(C)c1C [P5, Panicein A hydroquinone]
  dxr fluorescence in hPtc-expressing yeasts after efflux: significantly higher amounts of dxr fluorescence
  Efflux (%) of dxr: 40%
